Here are results for one compound from patent US11879137B2, “Treatment of type 1 diabetes and autoimmune diseases or disorders” (THE CHILDREN'S MEDICAL CENTER CORPORATION, priority 2017, dated 2024).

In the assay the test system is PD-L1 on CD34+ cells. The assay is described as follows: 7-day culture of CD34+ cells with PGE2 and hematopoietic cytokines (STFIA medium), PD-L1+CD34+ by FACS. It counts as cell-based, human. Particulars: for increase in the percentage of PD-L1+CD34+ cells: 7 days, STFIA medium, PGE2 10 μM. The procedure:
FIGS. 18A-18J show effects of human PGE2-modulated and cytokine-treated CD34^+ cells. […] (FIG. 18C) Effect of PGE2 pulsing on CD34^+ cells cultured for 0, 24 h, 72 h and 6 days on PD-L1 expression on CD34^+ cells. (FIG. 18D-18E) Bar graphs showing an increase in the number of PD-L1^+CD34^+ cells and fold increase in cell number after 7 days of culture with PGE2 supplemented with cytokines. (FIG. 18F-18G) Upregulation of PD-L1 expression following culture with PGE2 (shown as percentage) on CD34^+ cells was not altered by the freeze/thawing process. (FIG. 18H) PGE2-modulated CD34^+ cells abrogate the IFN-γ autoimmune response to insulin-associated 2 (I-A2) autoantigen in vitro, as measured via the quantification of IFN-γ-producing cells in an Elispot assay; […]. (FIG. 18I) PGE2-modulated CD34^+ cells and PGE2-modulated CD34^+ cells cultured for 7 days in STFIA media abrogate the IFN-γ autoimmune response towards insulin-associated 2 (I-A2) autoantigen in vitro, as measured via the quantification of IFN-γ-producing cells in an Elispot assay, even when added at low dose. (FIG. 18J) PGE2-modulated CD34^+ cells abrogate the anti-CD3/CD28-stimulated PBMC response in vitro as measured via the quantification of IFN-γ-producing cells in an Elispot assay. […] Abbreviations: SCF, stem cell factor; TPO, thrombopoietin; hFGF-1, human fibroblast growth factor 1; IGFBP2, insulin-like growth factor-binding protein 2; Angptl3, angiopoietin-like 3; PBMCs, peripheral blood mononuclear cells.
Pharmacological modulation of human CD34+ cells. […] Data were analyzed using FlowJo software version 8.7.3 (Treestar, Ashland, OR). […]
PGE2 highly augments PD-L1 expression in human HSPCs when supplemented with hematopoietic cytokine. […] PD-L1+ HSPCs were then quantified by FACS analysis at different time points post-culture. […]
In general terms: A flow cytometer gives signals particle by particle.

For the compound `CCCCC[C@H](O)/C=C/[C@H]1[C@H](O)CC(=O)[C@@H]1C/C=C\CCCC(=O)O` [PGE2, prostaglandin E2], the “increase in the percentage of PD-L1+CD34+ cells” value is recorded as about 5 fold (HSPCs from T1D) and about 2 fold (healthy control patients). In addition, the “PD-L1 expression pre- and post-cryopreservation” value (fresh vs frozen HSPCs, 7 days STFIA media pulsed with PGE2) is “Sustained and conserved”.
